Results as given in ChEMBL document CHEMBL1156579, “Orally active factor Xa inhibitors: investigation of a novel series of 3-amidinophenylsulfonamide derivatives using an amidoxime prodrug strategy” (Bioorg Med Chem Lett, 2008).
Blank lines part the entries; values can stand above or below the compound they belong to.

Tests used:
Trypsin = Trypsin (Homo sapiens, UniProt P07477+P07478+P35030); assay: Inhibition of human trypsin by Dixon-plot method; type: protein assay
Coagulation factor X = Coagulation factor X (Homo sapiens, UniProt P00742); assay: Inhibition of human factor 10a by Dixon-plot method
Sequence of Coagulation factor X (P00742 41-179 limits assumed): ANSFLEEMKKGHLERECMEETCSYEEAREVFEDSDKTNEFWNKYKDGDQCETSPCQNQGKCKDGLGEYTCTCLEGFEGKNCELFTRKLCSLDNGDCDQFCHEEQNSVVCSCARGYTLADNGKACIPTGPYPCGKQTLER
Sequence of Coagulation factor X (P00742 235-488 limits assumed): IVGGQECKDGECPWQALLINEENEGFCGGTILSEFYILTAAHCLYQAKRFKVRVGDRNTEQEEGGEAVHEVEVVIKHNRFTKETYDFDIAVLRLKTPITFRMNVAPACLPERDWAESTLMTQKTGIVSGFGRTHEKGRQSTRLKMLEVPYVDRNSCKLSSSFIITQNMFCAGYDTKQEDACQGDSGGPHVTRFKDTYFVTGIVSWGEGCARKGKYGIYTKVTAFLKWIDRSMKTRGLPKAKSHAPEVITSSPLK

Rattus norvegicus = assay: Stability in iv dosed rat assessed as prodrug conversion; type: ADME, organism-based; conditions: in vivo
[1] = Total clearance in iv dosed rat; type: ADME, organism-based; conditions: in vivo
[2] = Oral bioavailability in rat; type: ADME, organism-based; conditions: in vivo
[3] = Systemic clearance in rat; type: ADME, organism-based; conditions: in vivo
Plasma = assay: Anticoagulant activity in human plasma assessed as concentration required to double prothrombin time; type: functional
Mus musculus = assay: Antithrombotic activity against thromboplastin-induced lethal thromboembolism in po dosed thrombosis mouse model assessed as survival; type: functional
[4] = Oral bioavailability in mouse at 30 mg/kg; type: ADME, organism-based; conditions: in vivo
Prothrombin = Prothrombin (Homo sapiens, UniProt P00734); assay: Inhibition of human thrombin by Dixon-plot method
[5] = Oral bioavailability in cynomolgus monkey; type: ADME, organism-based, Macaca fascicularis; conditions: in vivo
[6] = Oral bioavailability in mouse; type: ADME, organism-based; conditions: in vivo
[7] = Oral bioavailability in rabbit; type: ADME, organism-based, Oryctolagus cuniculus; conditions: in vivo
[8] = Oral bioavailability in dog; type: ADME, organism-based, Canis lupus familiaris; conditions: in vivo

SMILES: CS(=O)(=O)c1ccccc1-c1ccc(CCNS(=O)(=O)c2cc(C(=N)N)ccc2O)c(OCC(=O)O)c1
clearance [1]: 7.5 mL/min

SMILES: CS(=O)(=O)c1ccccc1-c1ccc(CCNS(=O)(=O)c2cc(C(=N)N)ccc2O)c(NCC(=O)O)c1
clearance [1]: 25 mL/min
Ki (Coagulation factor X): 5.7 nM

SMILES: CC(C)(C)c1ccc(CCNS(=O)(=O)c2cc(C(=N)N)ccc2O)cc1
Ki (Coagulation factor X): 27 nM

SMILES: CCOC(=O)COc1cc(C(C)C)ccc1CCNS(=O)(=O)c1cc(C(=N)NO)ccc1O
ED50 (Mus musculus): 15.8 mg/kg
Ki (Coagulation factor X): 3500 nM
bioavailability [2]: 13%

SMILES: CC(C)c1ccc(CCNS(=O)(=O)c2cc(/C(N)=N/O)ccc2O)c(OCC(=O)O)c1
Activity (Rattus norvegicus): 57%
clearance [1]: 7.5 mL/min
Ki (Coagulation factor X): > 10000 nM
bioavailability [2]: 9.2%

SMILES: CC(C)c1ccc(CCNS(=O)(=O)c2cc(C(=N)N)ccc2O)c(NC(=O)C(=O)O)c1
clearance [1]: 20 mL/min
Ki (Coagulation factor X): 9.7 nM

SMILES: CS(=O)(=O)c1ccccc1-c1ccc(CCNS(=O)(=O)c2cc(C(=N)N)ccc2O)c(OCC(=O)O)c1.Cl
Ki (Prothrombin): 57800 nM
Activity (Plasma): 1.01 µM
Ki (Trypsin): 1170 nM

SMILES: CC(=N)N1CCC(c2ccc(NC(=O)CN(Cc3cccc(OCC(=O)O)c3)c3cccc(C(=N)N)c3)cc2)CC1
Ki (Prothrombin): 26000 nM
clearance [1]: 23 mL/min
Activity (Plasma): 0.84 µM
Ki (Trypsin): 6170 nM
bioavailability [2]: 0.9%

SMILES: CCCCOC(=O)COc1cc(-c2ccccc2S(C)(=O)=O)ccc1CCNS(=O)(=O)c1cc(C(=N)NO)ccc1O.Cl
bioavailability [5]: 11%
bioavailability [6]: 15%
bioavailability [7]: 23%
bioavailability [8]: 4.9%

SMILES: CC(C)c1ccc(CCNS(=O)(=O)c2cccc(C(=N)N)c2)cc1
Ki (Prothrombin): > 10000 nM
IC50 (Trypsin): 9700 nM
Ki (Coagulation factor X): 2100 nM

Further lines, with some results ahead:

Ki (Trypsin): 770 nM
Ki (Coagulation factor X): 59 nM
SMILES: CC(C)c1ccc(CCN(C)S(=O)(=O)c2cc(C(=N)N)ccc2O)cc1

Activity (Rattus norvegicus): 1%
clearance [1]: 27 mL/min
Ki (Coagulation factor X): 7300 nM
bioavailability [2]: 6.6%
SMILES: CC(C)c1ccc(CCNS(=O)(=O)c2cc(/C(N)=N/O)ccc2O)cc1

clearance [1]: 8.1 mL/min
clearance [3]: 8.1 mL/min
Ki (Coagulation factor X): 14 nM
SMILES: CC(C)c1ccc(CCN(CC(=O)O)S(=O)(=O)c2cc(C(=N)N)ccc2O)cc1
Activity (Plasma): 1.4 µM

Ki (Coagulation factor X): 3700 nM
bioavailability [2]: < 1%
SMILES: CCOC(=O)CN(CCc1ccc(C(C)C)cc1)S(=O)(=O)c1cc(/C(N)=N/O)ccc1O

Ki (Trypsin): 4000 nM
Ki (Coagulation factor X): 3000 nM
SMILES: CC(C)c1ccc(CCNS(=O)(=O)c2cc(C(=N)N)ccc2Cl)cc1

Ki (Coagulation factor X): 14000 nM
SMILES: COc1ccc(C(=N)N)cc1S(=O)(=O)NCCc1ccc(C(C)C)cc1

clearance [1]: 3.2 mL/min
Ki (Coagulation factor X): 62 nM
SMILES: CC(C)c1ccc(CCNS(=O)(=O)c2cc(C(=N)N)ccc2O)c(NCC(=O)O)c1

clearance [1]: 1.7 mL/min
bioavailability [4]: 38%
Ki (Coagulation factor X): 51 nM
SMILES: CC(C)c1ccc(CCNS(=O)(=O)c2cc(C(=N)N)ccc2O)c(OCC(=O)O)c1
Activity (Plasma): 7.2 µM

Ki (Prothrombin): > 10000 nM
clearance [1]: 27 mL/min
Ki (Trypsin): 800 nM
Ki (Coagulation factor X): 29 nM
bioavailability [2]: 3.7%
SMILES: CC(C)c1ccc(CCNS(=O)(=O)c2cc(C(=N)N)ccc2O)cc1
Activity (Plasma): 2.6 µM

Activity (Rattus norvegicus): 16%
clearance [1]: 13 mL/min
Ki (Coagulation factor X): 7000 nM
SMILES: CC(C)c1ccc(CCN(CC(=O)O)S(=O)(=O)c2cc(/C(N)=N/O)ccc2O)cc1

Ki (Prothrombin): > 10000 nM
IC50 (Trypsin): 1700 nM
Ki (Coagulation factor X): 100 nM
SMILES: CC(C)Oc1ccc(CCNS(=O)(=O)c2cc(C(=N)N)ccc2O)cc1
